In patent US11965039B2, “Compstatin analogues and their medical uses” (priority 2018, dated 2024):
Like-named read-outs stand apart in the source and are kept apart here. Starred links: 1 amine or outer side, 2 acyl side, 3 side chain; linkers in the order of their positions; H or OH if unused. Positions of bridges follow the written chain, without caps; N, C: chain ends. Non-standard residues stand in square brackets, D forms with d. Residues, ends and D or L forms follow the SMILES beside them. Groups on a side chain read outwards from the residue. *: point of attachment. C20 diacid = O=C(O)CCCCCCCCCCCCCCCCCCC(=O)*; Trp(1-Me) = Cn1cc(C[C@H](N)C(=O)O)c2ccccc21; C18 diacid = O=C(O)CCCCCCCCCCCCCCCCC(=O)*; C16 diacid = O=C(O)CCCCCCCCCCCCCCC(=O)*; γGlu = O=C(O)[C@H](CCC(=O)[*:2])N[*:1]; AEEA = NCCOCCOCC(=O)O; Sar = CNCC(=O)O

Tests used:
[1] = system: classical complement pathway; experiment: In vitro haemolysis assay (inhibition of classical complement pathway); type: cell-based, human
Experimental: The in vitro effect of the compounds of the present invention was assessed by measuring their inhibitory effect of the classical complement pathway in a haemolysis assay. Briefly, compounds of the present invention and reference compounds were dissolved in DMSO and diluted in Tris/Casein Assay Buffer (10 mM Tris, 145 mM NaCl, 0.5 mM MgCl2, 0.15 mM CaCl2), and 0.1% W/V Casein, adjusted to pH 7.4) as 9-point serial dilutions in a 96 well plate. Sensitized sheep red blood cells (RBC) coated with rabbit anti-sheep erythrocyte antiserum (Complement Technology, Inc., TX, USA) were washed in Tris/Casein Assay Buffer. […] from each well of diluted compound was added to a 96-well plate containing 50 μL diluted human serum (Complement Technology, Inc., TX, USA) and incubated for 15 minutes at room temperature. The serum dilution factor was optimized for every serum batch to obtain 70-90% of maximal haemolysis using the protocol. Then 50 μL sensitized sheep red blood cells were added to all wells (10^7 per well). After 30 minutes of incubation at 37 QC with gentle agitation, the reaction was stopped by addition of 50 μL Tris STOP Buffer per well (10 mM EDTA, 10 mM Tris, 145 mM NaCl adjusted to pH 7.4). The RBCs were then removed by centrifugation and the resulting supernatant measured for hemolysis by absorbance at 405 nm. The response was normalized relative to a positive and negative control (vehicle) to calculate the IC50 from the concentration response curve using the 4-parameter logistic (4PL) nonlinear model for curve fitting.

[2] = Solubility test at 10 mg/mL (visual inspection and light scattering); type: physicochemical; conditions: for Solubility, Condition 1: Acetate pH 4; for Solubility, Condition 2: Acetate pH 5; for Solubility, Condition 3: Phosphate pH 6; for Solubility, Condition 4: Phosphate pH 7; for Solubility, Condition 5: Phosphate pH 7.5
Experimental: The solubility of compounds was assessed by measuring light scattering over a pH interval from pH 4 to pH 7.5.
Compounds were dissolved in a stock solution of 20 mg/mL in H2O at pH 2.5 or pH 10. These stock solutions were diluted 1:1 with 200 mM buffered solution to reach a final solution of 10 mg/mL compound in 100 mM buffer. The 5 investigated conditions were (1) acetate pH 4.0, (2) acetate pH 5.0, (3) phosphate pH 6.0, (4) phosphate pH 7 and (5) phosphate pH 7.5.
Visual inspection included manually checking the 96 well plate for wells that are clear or non-clear. In addition to this a picture of the 96 well plate is taken.
Absorbance was measured at four wavelengths: 280 nm, 325 nm, 340 nm and 360 nm in an UV transparent 96 well microplate in a SpectraMax 190 microplate reader (Molecular Devices).
The criteria for this was a combination of visual inspection and light scattering not exceeding 0.1 AU, where values below 0.1 AU are good in visually clear samples.

[3] = human serum, sensitized sheep red blood cells, Table 3, given as upper bounds, read-out: IC50, inhibition of hemolysis

## CC[C@H](C)[C@H](NC(C)=O)C(=O)N[C@H]1CSSC[C@@H](C(=O)N[C@H](C(=O)N[C@@H](CCC(=O)O)C(=O)NCC(=O)N[C@@H](CCCCNC(=O)COCCOCCNC(=O)COCCOCCNC(=O)CC[C@H](NC(=O)CCCCCCCCCCCCCCCCCCC(=O)O)C(=O)O)C(N)=O)[C@@H](C)O)NC(=O)[C@H](CCCNC(=N)N)NC(=O)[C@H](Cc2c[nH]cn2)NC(=O)[C@H](CCC(=O)O)NC(=O)CNC(=O)[C@H](Cc2c[nH]c3ccccc23)NC(=O)[C@H](CC(=O)O)NC(=O)[C@H](CCC(N)=O)NC(=O)[C@H](Cc2c[nH]c3ccccc23)NC(=O)[C@H]([C@@H](C)CC)NC1=O [Compound 98] (Ac-ICIWQDWGEHRCTEGK([AEEA-AEEA-γGlu-C20 diacid])-NH2; disulfide 2-12)
[1]; [3]
  IC50: < 0.5 µM

## CC[C@H](C)[C@H](NC(C)=O)C(=O)N[C@H]1CSSC[C@@H](C(=O)N[C@H](C(N)=O)[C@@H](C)O)NC(=O)[C@H](CCCNC(=N)N)NC(=O)[C@H](Cc2c[nH]cn2)NC(=O)[C@H](CCC(=O)O)NC(=O)CNC(=O)[C@H](Cc2c[nH]c3ccccc23)NC(=O)[C@H](CC(=O)O)NC(=O)[C@H](CCC(N)=O)NC(=O)[C@H](Cc2c[nH]c3ccccc23)NC(=O)[C@H](C(C)C)NC1=O [A, reference compound] (Ac-ICVWQDWGEHRCT-NH2; disulfide 2-12)
[1]; Table 5, different residues at position 3 of Ac-IC(1)XWQDWGEHRC(1)T-NH2, read-out: IC50, CP hemolysis
  IC50: 0.35 µM
[1]; human serum, sensitized sheep red blood cells, Table 4, valine 3 vs isoleucine 3 pairs, read-out: CP hemolysis IC50
  IC50: 0.35 µM

## CC[C@H](C)[C@@H]1NC(=O)[C@@H](NC(=O)[C@@H](NC(=O)[C@H](CCCCN)NC(=O)[C@H](CCC(=O)O)NC(=O)[C@H](CCCCN)NC(C)=O)[C@@H](C)CC)CSSC[C@@H](C(=O)N[C@H](C(=O)N[C@@H](CCC(=O)O)C(=O)N[C@@H](CCCCN)C(=O)N[C@@H](CCC(=O)O)C(N)=O)[C@@H](C)O)NC(=O)[C@H](CCCNC(=N)N)NC(=O)[C@H](Cc2c[nH]cn2)NC(=O)[C@H](CCC(=O)O)NC(=O)CNC(=O)[C@H](Cc2c[nH]c3ccccc23)NC(=O)[C@H](CC(=O)O)NC(=O)[C@H](CCC(N)=O)NC(=O)[C@H](Cc2c[nH]c3ccccc23)NC1=O [Compound 37] (Ac-KEKICIWQDWGEHRCTEKE-NH2; disulfide 5-15)
[1]; [3]
  IC50: < 0.25 µM

## CC[C@H](C)[C@H](NC(C)=O)C(=O)N[C@H]1CSSC[C@@H](C(=O)N[C@H](C(N)=O)[C@@H](C)O)NC(=O)[C@H](CCCNC(=N)N)NC(=O)[C@H](Cc2c[nH]cn2)NC(=O)[C@H](CCC(=O)O)NC(=O)CNC(=O)[C@H](Cc2c[nH]c3ccccc23)NC(=O)[C@H](CCCCN)NC(=O)[C@H](CCC(N)=O)NC(=O)[C@H](Cc2c[nH]c3ccccc23)NC(=O)[C@H]([C@@H](C)CC)NC1=O [Compound 7] (Ac-ICIWQKWGEHRCT-NH2; disulfide 2-12)
[1]; [3]
  IC50: < 1 µM

## CC[C@H](C)[C@H](NC(C)=O)C(=O)N[C@H]1CSSC[C@@H](C(=O)N[C@H](C(=O)N[C@@H](CCC(=O)O)C(=O)NCC(=O)N[C@@H](CCCCNC(=O)CC[C@H](NC(=O)CCCCCCCCCCCCCCC(=O)O)C(=O)O)C(N)=O)[C@@H](C)O)NC(=O)[C@H](CCCNC(=N)N)NC(=O)[C@H](Cc2c[nH]cn2)NC(=O)[C@H](CCC(=O)O)NC(=O)CNC(=O)[C@H](Cc2c[nH]c3ccccc23)NC(=O)[C@H](CC(=O)O)NC(=O)[C@H](CCC(N)=O)NC(=O)[C@H](Cc2c[nH]c3ccccc23)NC(=O)[C@H]([C@@H](C)CC)NC1=O [Compound 92] (Ac-ICIWQDWGEHRCTEGK([γGlu-C16 diacid])-NH2; disulfide 2-12)
[1]; [3]
  IC50: < 1 µM

## CC[C@H](C)[C@@H]1NC(=O)[C@@H](NC(=O)[C@H](Cc2ccc(O)cc2)NC(=O)[C@H](C)NC(=O)[C@H](CO)NC(=O)CNC(=O)[C@H](CCC(=O)O)NC(C)=O)CSSC[C@@H](C(=O)N(C)CC(=O)N[C@@H](CCC(=O)O)C(=O)NCC(=O)N[C@@H](CCCCN)C(=O)N[C@@H](CCCCNC(=O)CC[C@H](NC(=O)CNC(=O)CC[C@H](NC(=O)CCCCCCCCCCCCCCCCC(=O)O)C(=O)O)C(=O)O)C(N)=O)NC(=O)[C@H](CCCNC(=N)N)NC(=O)[C@H](Cc2c[nH]cn2)NC(=O)[C@H](CCC(=O)O)NC(=O)CNC(=O)[C@H](Cc2c[nH]c3ccccc23)NC(=O)[C@H](CC(=O)O)NC(=O)[C@H](CCC(N)=O)NC(=O)[C@H](Cc2cn(C)c3ccccc23)NC1=O [Compound 110] (Ac-EGSAYCI[Trp(1-Me)]QDWGEHRC[Sar]EGKK([γGlu-Gly-γGlu-C18 diacid])-NH2; disulfide 6-16)
[1]; [3]
  IC50: < 0.25 µM

## CC[C@H](C)[C@@H]1NC(=O)[C@@H](NC(=O)[C@H](Cc2ccccc2)NC(=O)[C@H](CCC(=O)O)NC(=O)[C@H](CO)NC(C)=O)CSSC[C@@H](C(=O)N(C)CC(=O)N[C@@H](CCC(=O)O)C(=O)N[C@@H](C)C(N)=O)NC(=O)[C@H](CCCNC(=N)N)NC(=O)[C@H](Cc2c[nH]cn2)NC(=O)[C@H](CCC(=O)O)NC(=O)CNC(=O)[C@H](Cc2c[nH]c3ccccc23)NC(=O)[C@H](CC(=O)O)NC(=O)[C@H](CCC(N)=O)NC(=O)[C@H](Cc2cn(C)c3ccccc23)NC1=O [Compound 75] (Ac-SEFCI[Trp(1-Me)]QDWGEHRC[Sar]EA-NH2; disulfide 4-14)
[1]; [3]
  IC50: < 0.1 µM

## CC[C@H](C)[C@@H]1NC(=O)[C@@H](NC(=O)[C@H](Cc2ccc(O)cc2)NC(=O)[C@H](C)NC(=O)[C@H](CO)NC(C)=O)CSSC[C@@H](C(=O)N(C)CC(=O)N[C@@H](CCC(=O)O)C(=O)N[C@@H](CCCCNC(=O)CC[C@H](NC(=O)CNC(=O)[C@H](CCCCN)NC(=O)CC[C@H](NC(=O)CCCCCCCCCCCCCCCCC(=O)O)C(=O)O)C(=O)O)C(N)=O)NC(=O)[C@H](CCCNC(=N)N)NC(=O)[C@H](Cc2c[nH]cn2)NC(=O)[C@H](CCC(=O)O)NC(=O)CNC(=O)[C@H](Cc2c[nH]c3ccccc23)NC(=O)[C@H](CC(=O)O)NC(=O)[C@H](CCC(N)=O)NC(=O)[C@H](Cc2cn(C)c3ccccc23)NC1=O [Compound 105] (Ac-SAYCI[Trp(1-Me)]QDWGEHRC[Sar]EK([γGlu-Gly-Lys-γGlu-C18 diacid])-NH2; disulfide 4-14)
[2]
  Solubility, Condition 1: − (“−” denotes lack of solubility at the given condition, as UV absorbance at 340 nm exceeds 0.1 AU and/or it is visibly turbid or contains particles)
  Solubility, Condition 2: − (“−” denotes lack of solubility at the given condition, as UV absorbance at 340 nm exceeds 0.1 AU and/or it is visibly turbid or contains particles)
  Solubility, Condition 3: + (“+” denotes solubility at the given condition, as determined by UV absorbance being less than 0.1 AU at 340 nm and the sample being clear when manually inspected)
  Solubility, Condition 4: + (“+” denotes solubility at the given condition, as determined by UV absorbance being less than 0.1 AU at 340 nm and the sample being clear when manually inspected)
  Solubility, Condition 5: + (“+” denotes solubility at the given condition, as determined by UV absorbance being less than 0.1 AU at 340 nm and the sample being clear when manually inspected)

## CC[C@H](C)[C@@H]1NC(=O)[C@@H](NC(=O)[C@H](Cc2ccc(O)cc2)NC(=O)[C@H](CCC(=O)O)NC(=O)[C@H](CO)NC(C)=O)CSSC[C@@H](C(=O)N(C)CC(=O)N[C@@H](CCC(=O)O)C(=O)NCC(=O)N[C@@H](CCC(=O)O)C(=O)N[C@@H](CCCCNC(=O)CC[C@H](NC(=O)[C@H](CCCCN)NC(=O)CC[C@H](NC(=O)CCCCCCCCCCCCCCCCC(=O)O)C(=O)O)C(=O)O)C(N)=O)NC(=O)[C@H](CCCNC(=N)N)NC(=O)[C@H](Cc2c[nH]cn2)NC(=O)[C@H](CCC(=O)O)NC(=O)CNC(=O)[C@H](Cc2c[nH]c3ccccc23)NC(=O)[C@H](CC(=O)O)NC(=O)[C@H](CCC(N)=O)NC(=O)[C@H](Cc2cn(C)c3ccccc23)NC1=O [Compound 116] (Ac-SEYCI[Trp(1-Me)]QDWGEHRC[Sar]EGEK([γGlu-Lys-γGlu-C18 diacid])-NH2; disulfide 4-14)
[2]
  Solubility, Condition 1: − (“−” denotes lack of solubility at the given condition, as UV absorbance at 340 nm exceeds 0.1 AU and/or it is visibly turbid or contains particles)
  Solubility, Condition 2: − (“−” denotes lack of solubility at the given condition, as UV absorbance at 340 nm exceeds 0.1 AU and/or it is visibly turbid or contains particles)
  Solubility, Condition 3: + (“+” denotes solubility at the given condition, as determined by UV absorbance being less than 0.1 AU at 340 nm and the sample being clear when manually inspected)
  Solubility, Condition 4: + (“+” denotes solubility at the given condition, as determined by UV absorbance being less than 0.1 AU at 340 nm and the sample being clear when manually inspected)
  Solubility, Condition 5: + (“+” denotes solubility at the given condition, as determined by UV absorbance being less than 0.1 AU at 340 nm and the sample being clear when manually inspected)
